Entries after “also recorded” stand apart in the source; their conditions may differ.
Columns and labels:
bovine thymus VDR = target: T1, bovine thymus VDR (Bos taurus, UniProt Q28037); assay: Radioreceptor assay, displacement of 3H-1α,25-(OH)2 D3 tracer (Incstar kit); format: binding; details: in words
T1 construct: commercially available kit of bovine thymus VDR; purchased Incstar (Stillwater, Minn.); host or cells: bovine thymus
T1 sequence (Q28037 1-426): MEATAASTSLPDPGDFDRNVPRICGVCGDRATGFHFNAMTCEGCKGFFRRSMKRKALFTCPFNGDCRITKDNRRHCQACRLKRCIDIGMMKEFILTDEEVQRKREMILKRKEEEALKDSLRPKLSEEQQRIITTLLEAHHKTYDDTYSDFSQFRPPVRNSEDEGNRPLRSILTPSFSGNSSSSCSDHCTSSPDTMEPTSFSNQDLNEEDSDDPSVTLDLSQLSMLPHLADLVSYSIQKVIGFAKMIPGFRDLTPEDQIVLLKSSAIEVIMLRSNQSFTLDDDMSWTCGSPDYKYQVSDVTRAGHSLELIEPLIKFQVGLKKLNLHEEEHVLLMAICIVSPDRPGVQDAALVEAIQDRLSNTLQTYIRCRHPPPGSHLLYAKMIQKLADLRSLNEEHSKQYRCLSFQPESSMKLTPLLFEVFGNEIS
Description: Purified 1α,24(S)-(OH)2 D2 was quantitated by photodiode array spectrophotometry and assayed in the radioreceptor assay.
The purified 1α,24(R)-(OH)2 D2 and 1α,24(S)-(OH)2 D2 epimers were quantitated by ultraviolet spectroscopy. The concentration of 1α,24(R)-(OH)2 D2 required to produce the same displacement of ^3 H-1α,25-(OH)2 D3 tracer from the receptor was 20 to 30 times that required for 1α,24(S)-(OH)2 D2, as shown in FIG. 4.

[1] = target: T2, vitamin D serum binding protein (DBP) (Rattus norvegicus, UniProt P04276); assay: Affinity for vitamin D serum binding protein using vitamin D deficient rat serum; details: in words
T2 sequence (P04276 17-476): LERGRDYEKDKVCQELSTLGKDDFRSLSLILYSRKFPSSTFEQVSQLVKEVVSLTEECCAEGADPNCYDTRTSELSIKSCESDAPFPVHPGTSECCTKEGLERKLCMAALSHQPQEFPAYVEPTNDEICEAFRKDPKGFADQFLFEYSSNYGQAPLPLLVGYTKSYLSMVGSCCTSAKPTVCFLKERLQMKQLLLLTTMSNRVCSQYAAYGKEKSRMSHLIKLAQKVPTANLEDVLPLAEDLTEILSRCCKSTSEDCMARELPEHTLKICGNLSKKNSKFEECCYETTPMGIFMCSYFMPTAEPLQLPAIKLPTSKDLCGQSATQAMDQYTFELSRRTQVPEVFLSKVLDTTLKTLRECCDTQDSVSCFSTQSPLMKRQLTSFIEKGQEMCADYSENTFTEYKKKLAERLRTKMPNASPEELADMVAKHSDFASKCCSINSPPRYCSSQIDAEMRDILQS
Description: In addition, the weak binding by the DBP was indicative of more rapid clearance, allowing for low toxicity.

Hep 3B cells = assay: Metabolite production in Hep 3B cells incubated with 1α-OH-D2; format: in vitro ADME, human; details: Experiment 2, photodiode array spectrophotometry
Method: Substantially pure 1α-(OH)D2 was obtained from Bone Care International, Inc. of Madison, Wis. The 1α-(OH)D2 was cultured for 48 hours with cells derived from a human hepatoma, Hep 3B, in medium devoid of fetal calf serum using known methods in the art.
Lipid extracts of the combined medium and cells were generated by known methods in the art and were subjected to high pressure liquid chromatography (HPLC) on Zorbax-S1L developed with hexane/isopropanol/methanol (91:7:2). The putative 1α,24(?)-(OH)2 D2 metabolite eluted between the parent 1α-(OH)D2 and standard 1α,25-(OH)2 D2 (also obtained from Bone Care International, Inc. of Madison, Wis.). (As used herein, the term "1α,24(?)-(OH)2 D2 " is meant to indicate that the epimeric form has not been identified.) The 1α,24(?)-(OH)2 D2 was further purified by this HPLC system before the metabolite's identification was undertaken using mass spectrometry analysis.
Hep 3B cells were incubated with 1α-OH-D2, as described above, at final concentrations of 1, 10, or 100 nM (Experiment 1), and 1 or 10 μM (Experiment 2) and 1α,24(S)-(OH)2 D2 was extracted and purified. The 1α,24(S)-(OH)2 D2 and 1α,25-(OH)2 D2 metabolites were quantitated by recovered radiolabel (Experiment 1) or by photodiode array spectrophotometry (Experiment 2).

Human keratinocytes = assay: Epidermal cell differentiation and proliferation testing; format: cell-based; details: 0.05 to 5 μg/ml
Method: Human keratinocytes are cultured according to known modifications of the system originally described by Rheinwald and Green (Cell, vol. 6, p. 331 (1975)). The 1α,24(S)-dihydroxy vitamin D2, dissolved in ethanol, is added to cells to yield a variety of concentrations between 0.05 and 5 μg/ml with the ethanol concentration not to exceed 0.5% v/v. Control cultures are supplemented with ethanol at a final concentration of 0.5% v/v.
Differentiation and proliferation of epidermal cells in culture is examined by:
1. quantitation of cornified envelopes;
2. quantitation of cell density of cells attached to disks;
3. monitoring transglutaminase activity; or
4. monitoring DNA synthesis by incorporation of ^3 H-thymidine.

[2] = test system: human cancer cell lines BCA-1 or ZR-75-1 (breast) and COL-1 (colon); assay: Antiproliferative activity in human cancer cell lines (thymidine incorporation); format: cell-based; details: dose-response
Method: Dose-response studies are conducted with 1α,24(S)-(OH)2 D2 in a battery of human cancer cell lines. These cell lines include, but are not limited to, the following: BCA-1 or ZR-75-1 (breast) and COL-1 (colon), as described by Shieh, H. L. et al. Chem. Biol. Interact., vol. 81, pp. 35-55 (1982). In this study, appropriate solvents are used as negative controls.

binding affinity for the vitamin D serum binding protein [1]: more weakly than does 1,25-(OH)2 D3
Rate of Production (Hep 3B cells; substrate 1α-OH-D2 1 μM): 4.9 pmol per 10^6 cells/day
Rate of Production (Hep 3B cells; substrate 1α-OH-D2 10 μM): 59 pmol per 10^6 cells/day
SMILES: C=C1/C(=C\C=C2/CCC[C@]3(C)[C@@H]([C@H](C)/C=C/[C@@](C)(O)C(C)C)CC[C@@H]23)C[C@@H](O)C[C@@H]1O [1α,24(S)-(OH)2 D2, 1α,24(S)-dihydroxy Vitamin D2]
affinity for VDR relative to 1α,25-(OH)2 D3 (bovine thymus VDR): two-fold less competitive; also recorded: two-fold lower affinity
DNA synthesis (3H-thymidine incorporation) vs control cultures (Human keratinocytes): lower DNA synthesis
cell density of attached cells vs control cultures (Human keratinocytes): fewer attached cells
cornified envelopes vs control cultures (Human keratinocytes): more cornified envelopes
transglutaminase activity vs control cultures (Human keratinocytes): higher transglutaminase activity
antiproliferative activity (inhibition of thymidine incorporation) [2]: potent (and reversible) antiproliferative activity
